In ChEMBL document CHEMBL1201862, “PubChem BioAssay data set” (2004):
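A five-concentration, 48-hour dose response in 96-well plates underlies each endpoint, interpolated linearly between surrounding concentrations. GI50 marks 50% less growth.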 Activity calls are given as the source filed them. Rule as the data show it: active = GI50 up to about 1.1 µM and inactive = higher.

What was measured:
Test in all cases: NCI anticancer screen, dose series, 48 h
786-0 = test system: 786-0
A498 = test system: A498
A549 = test system: A549
ACHN = test system: ACHN
BT-549 = test system: BT-549
CAKI-1 = test system: CAKI-1
CCRF-CEM = test system: CCRF-CEM
COLO 205 = test system: COLO 205
DU-145 = test system: DU-145
EKVX = test system: EKVX
HCC 2998 = test system: HCC 2998
HCT-116 = test system: HCT-116
HCT-15 = test system: HCT-15
HL-60 = test system: HL-60
HOP-62 = test system: HOP-62
HOP-92 = test system: HOP-92
HT-29 = test system: HT-29
Hs-578T = test system: Hs-578T
IGROV-1 = test system: IGROV-1
K562 = test system: K562
KM12 = test system: KM12
M14 = test system: M14
MCF7 = test system: MCF7
MDA-MB-231 = test system: MDA-MB-231
MDA-MB-435 = test system: MDA-MB-435
MDA-N = test system: MDA-N
MOLT-4 = test system: MOLT-4
Malme-3M = test system: Malme-3M
NCI-H226 = test system: NCI-H226
NCI-H23 = test system: NCI-H23
NCI-H460 = test system: NCI-H460
NCI-H522 = test system: NCI-H522
NCI/ADR-RES = test system: NCI/ADR-RES
OVCAR-3 = test system: OVCAR-3
OVCAR-4 = test system: OVCAR-4
OVCAR-5 = test system: OVCAR-5
OVCAR-8 = test system: OVCAR-8
PC-3 = test system: PC-3
RPMI-8226 = test system: RPMI-8226
RXF 393 = test system: RXF 393
SF-268 = test system: SF-268
SF-295 = test system: SF-295
SF-539 = test system: SF-539
SK-MEL-28 = test system: SK-MEL-28
SK-MEL-2 = test system: SK-MEL-2
SK-MEL-5 = test system: SK-MEL-5
SK-OV-3 = test system: SK-OV-3
SN12C = test system: SN12C
SNB-19 = test system: SNB-19
SNB-75 = test system: SNB-75
SR = test system: SR
SW-620 = test system: SW-620
T47D = test system: T47D
TK-10 = test system: TK-10
U-251 = test system: U-251
UACC-257 = test system: UACC-257
UACC-62 = test system: UACC-62
UO-31 = test system: UO-31
LOX IMVI = test system: LOX IMVI

`Ic1ccc2c(c1)N(c1ccccc1)c1cc([N-]c3ccc4nc5ccc(I)cc5[n+](-c5ccccc5)c4c3)ccc1N2` was tested, and the GI50 (786-0) was > 100 µM (inactive), the GI50 (A498) was > 100 µM (inactive) and the GI50 (A549) was > 100 µM (inactive). For the same compound, the GI50 (ACHN) was > 100 µM (inactive), the GI50 (BT-549) was > 100 µM (inactive) and the GI50 (CAKI-1) was > 100 µM (inactive). The GI50 (CCRF-CEM) was 15 µM (inactive), the GI50 (COLO 205) was 16.2 µM (inactive) and the GI50 (DU-145) was > 100 µM (inactive). The GI50 (EKVX) was 32.2 µM (inactive), the GI50 (HCC 2998) was 67.1 µM (inactive) and the GI50 (HCT-116) was 35 µM (inactive). The GI50 (HCT-15) was over 100 µM, the GI50 (HL-60) was 17.9 µM (inactive) and the GI50 (HOP-62) was 41.3 µM (inactive). The GI50 (HOP-92) was > 100 µM (inactive), the GI50 (HT-29) was 14.8 µM (inactive) and the GI50 (Hs-578T) was > 100 µM (inactive). The GI50 (IGROV-1) was 43.8 µM (inactive), the GI50 (K562) was 35 µM (inactive) and the GI50 (KM12) was 44.2 µM (inactive). For the same compound, the GI50 (M14) was 26.9 µM (inactive), the GI50 (MCF7) was 26.4 µM (inactive) and the GI50 (MDA-MB-231) was 23.7 µM (inactive). For the same compound, the GI50 (MDA-MB-435) was 31.4 µM (inactive), the GI50 (MDA-N) was 37.6 µM (inactive) and the GI50 (MOLT-4) was 68.9 µM (inactive). The GI50 (Malme-3M) was 38 µM (inactive), the GI50 (NCI-H226) was > 100 µM (inactive) and the GI50 (NCI-H23) was 41.3 µM (inactive). The GI50 (NCI-H460) was 42 µM (inactive), the GI50 (NCI-H522) was 22.8 µM (inactive) and the GI50 (NCI/ADR-RES) was > 100 µM (inactive). For the same compound, the GI50 (OVCAR-3) was 2.92 µM (inactive), the GI50 (OVCAR-4) was > 100 µM (inactive) and the GI50 (OVCAR-5) was > 100 µM (inactive). The GI50 (OVCAR-8) was > 100 µM (inactive), the GI50 (PC-3) was 55.7 µM (inactive) and the GI50 (RPMI-8226) was 32.1 µM (inactive). For the same compound, the GI50 (RXF 393) was > 100 µM (inactive), the GI50 (SF-268) was > 100 µM (inactive) and the GI50 (SF-295) was > 100 µM (inactive). For the same compound, the GI50 (SF-539) was > 100 µM (inactive), the GI50 (SK-MEL-28) was > 100 µM (inactive) and the GI50 (SK-MEL-2) was > 100 µM (inactive). The GI50 (SK-MEL-5) was 33.4 µM (inactive), the GI50 (SK-OV-3) was > 100 µM (inactive) and the GI50 (SN12C) was > 100 µM (inactive). The GI50 (SNB-19) was > 100 µM (inactive), the GI50 (SNB-75) was > 100 µM (inactive) and the GI50 (SR) was 32.6 µM (inactive). For the same compound, the GI50 (SW-620) was 51.9 µM (inactive), the GI50 (T47D) was 61.7 µM (inactive) and the GI50 (TK-10) was > 100 µM (inactive). For the same compound, the GI50 (U-251) was 45.6 µM (inactive), the GI50 (UACC-257) was 31.3 µM (inactive) and the GI50 (UACC-62) was 69.3 µM (inactive). For the same compound, the GI50 (UO-31) was > 100 µM (inactive).

In the case of `COc1ccc(OC)c(C[P+](c2ccccc2)(c2ccccc2)c2ccccc2)c1`, the GI50 (786-0) is reported as 3.38 µM (inactive), the GI50 (A498) is reported as 4.36 µM (inactive) and the GI50 (A549) is reported as 3.56 µM (inactive). The GI50 (ACHN) was 4.8 µM (inactive), the GI50 (BT-549) was 2.06 µM (inactive) and the GI50 (CAKI-1) was 23.4 µM (inactive). The GI50 (CCRF-CEM) was 2.56 µM (inactive), the GI50 (COLO 205) was 1.1 µM (active) and the GI50 (DU-145) was 3.27 µM (inactive). The GI50 (EKVX) was 10.6 µM (inactive), the GI50 (HCC 2998) was 3.54 µM (inactive) and the GI50 (HCT-116) was 1.02 µM (active). The GI50 (HCT-15) was 18.5 µM, the GI50 (HL-60) was 0.434 µM (active) and the GI50 (HOP-62) was 3.77 µM (inactive). The GI50 (HOP-92) was 0.792 µM (active), the GI50 (HT-29) was 0.45 µM (active) and the GI50 (Hs-578T) was 2.01 µM (inactive). For the same compound, the GI50 (IGROV-1) was 0.971 µM (active), the GI50 (K562) was 0.445 µM (active) and the GI50 (KM12) was 1.11 µM (active). For the same compound, the GI50 (LOX IMVI) was 0.968 µM (active), the GI50 (M14) was 2.42 µM (inactive) and the GI50 (MCF7) was 2.11 µM (inactive). For the same compound, the GI50 (MDA-MB-231) was 3.27 µM (inactive), the GI50 (MDA-MB-435) was 0.984 µM (active) and the GI50 (MDA-N) was 0.753 µM (active). For the same compound, the GI50 (MOLT-4) was 3.42 µM (inactive), the GI50 (Malme-3M) was 5.56 µM (inactive) and the GI50 (NCI-H226) was 4.84 µM (inactive). The GI50 (NCI-H23) was 2.1 µM (inactive), the GI50 (NCI-H460) was 3.84 µM (inactive) and the GI50 (NCI-H522) was 9.23 µM (inactive). For the same compound, the GI50 (NCI/ADR-RES) was > 100 µM (inactive), the GI50 (OVCAR-3) was 2.54 µM (inactive) and the GI50 (OVCAR-4) was 4.01 µM (inactive). The GI50 (OVCAR-5) was 5.27 µM (inactive), the GI50 (OVCAR-8) was 2.08 µM (inactive) and the GI50 (PC-3) was 1.57 µM (inactive). For the same compound, the GI50 (RPMI-8226) was 0.33 µM (active), the GI50 (RXF 393) was 4.68 µM (inactive) and the GI50 (SF-268) was 3.72 µM (inactive). The GI50 (SF-295) was 3.96 µM (inactive), the GI50 (SF-539) was 3.82 µM (inactive) and the GI50 (SK-MEL-28) was 3.26 µM (inactive). The GI50 (SK-MEL-5) was 0.991 µM (active), the GI50 (SK-OV-3) was 2.58 µM (inactive) and the GI50 (SN12C) was 5.89 µM (inactive). The GI50 (SNB-19) was 2.67 µM (inactive), the GI50 (SNB-75) was 3.71 µM (inactive) and the GI50 (SR) was 0.601 µM (active). For the same compound, the GI50 (SW-620) was 2.61 µM (inactive), the GI50 (T47D) was 2.87 µM (inactive) and the GI50 (TK-10) was 2.7 µM (inactive). For the same compound, the GI50 (UACC-257) was 0.656 µM (active), the GI50 (UACC-62) was 0.971 µM (active) and the GI50 (UO-31) was 21.6 µM (inactive).

With `CCOc1ccc(/N=N/S(=O)(=O)O)cc1` the GI50 (786-0) was > 100 µM (inactive), the GI50 (A498) was > 100 µM (inactive) and the GI50 (A549) was > 100 µM (inactive). The GI50 (ACHN) was > 100 µM (inactive), the GI50 (BT-549) was > 100 µM (inactive) and the GI50 (CAKI-1) was > 100 µM (inactive). For the same compound, the GI50 (CCRF-CEM) was > 100 µM (inactive), the GI50 (COLO 205) was > 100 µM (inactive) and the GI50 (DU-145) was > 100 µM (inactive). The GI50 (EKVX) was > 100 µM (inactive), the GI50 (HCC 2998) was > 100 µM (inactive) and the GI50 (HCT-116) was > 100 µM (inactive). The GI50 (HCT-15) was over 100 µM, the GI50 (HL-60) was > 100 µM (inactive) and the GI50 (HOP-62) was > 100 µM (inactive). For the same compound, the GI50 (HOP-92) was > 100 µM (inactive), the GI50 (HT-29) was > 100 µM (inactive) and the GI50 (Hs-578T) was > 100 µM (inactive). The GI50 (IGROV-1) was > 100 µM (inactive), the GI50 (K562) was > 100 µM (inactive) and the GI50 (KM12) was > 100 µM (inactive). The GI50 (LOX IMVI) was > 100 µM (inactive), the GI50 (M14) was > 100 µM (inactive) and the GI50 (MCF7) was > 100 µM (inactive). The GI50 (MDA-MB-231) was > 100 µM (inactive), the GI50 (MDA-MB-435) was > 100 µM (inactive) and the GI50 (MDA-N) was > 100 µM (inactive). The GI50 (Malme-3M) was > 100 µM (inactive), the GI50 (NCI-H226) was > 100 µM (inactive) and the GI50 (NCI-H23) was > 100 µM (inactive). The GI50 (NCI-H460) was > 100 µM (inactive), the GI50 (NCI-H522) was > 100 µM (inactive) and the GI50 (NCI/ADR-RES) was > 100 µM (inactive). For the same compound, the GI50 (OVCAR-3) was > 100 µM (inactive), the GI50 (OVCAR-4) was > 100 µM (inactive) and the GI50 (OVCAR-5) was > 100 µM (inactive). The GI50 (OVCAR-8) was > 100 µM (inactive), the GI50 (PC-3) was > 100 µM (inactive) and the GI50 (RPMI-8226) was > 100 µM (inactive). For the same compound, the GI50 (RXF 393) was > 100 µM (inactive), the GI50 (SF-268) was > 100 µM (inactive) and the GI50 (SF-295) was > 100 µM (inactive). For the same compound, the GI50 (SF-539) was > 100 µM (inactive), the GI50 (SK-MEL-28) was > 100 µM (inactive) and the GI50 (SK-MEL-2) was > 100 µM (inactive). The GI50 (SK-MEL-5) was > 100 µM (inactive), the GI50 (SK-OV-3) was > 100 µM (inactive) and the GI50 (SN12C) was > 100 µM (inactive). For the same compound, the GI50 (SNB-19) was > 100 µM (inactive), the GI50 (SNB-75) was > 100 µM (inactive) and the GI50 (SR) was > 100 µM (inactive). For the same compound, the GI50 (SW-620) was > 100 µM (inactive), the GI50 (T47D) was > 100 µM (inactive) and the GI50 (TK-10) was > 100 µM (inactive). For the same compound, the GI50 (U-251) was > 100 µM (inactive), the GI50 (UACC-257) was > 100 µM (inactive) and the GI50 (UACC-62) was > 100 µM (inactive). For the same compound, the GI50 (UO-31) was > 100 µM (inactive).
